# How the values were obtained:
# Colinus virginianus = details: acute, oral, mortality; for LC50: diet
# Anas platyrhynchos = details: reproductive; mortality
# Bibionidae = details: chronic/long-term; duration: 28 days; development
# Oncorhynchus mykiss = details: chronic/long-term; duration: 21 days; mortality
# Landoltia sp. = details: acute; duration: 14 days; frond number
# Oryctolagus sp. = details: chronic; mortality
# Apis mellifera = details: acute, mortality
# Lepomis macrochirus = details: acute; duration: 96 hours; mortality
# Daphnia magna = details: chronic/long-term; duration: 21 days; reproduction
SMILES,LC50 (Colinus virginianus) [mg/kg-day],LD50 (Colinus virginianus) [mg/kg-day],NOEC (Anas platyrhynchos) [mg/kg-day],"LD50 (Rattus norvegicus; acute, oral, mortality) [mg/kg-day]",NOEC (Bibionidae) [mg/L],"NOAEL (Rattus norvegicus; chronic, duration: 2 years) [mg/kg-day]","NOAEL (Rattus norvegicus; subchronic, oral) [mg/kg-day]",NOEC (Oncorhynchus mykiss) [mg/L],LC50 (Landoltia sp.) [µg/mL],NOEL (Oryctolagus sp.) [mg/kg-day],LD50 (Apis mellifera; dermal) [µg/piece],"LD50 (Apis mellifera; oral, unspecified) [µg/piece]","LC50 (Tagia sp.; acute, duration: 14 days, mortality) [mg/kg]","NOEC (Tagia sp.; chronic/long-term, duration: 56 days) [mg/kg]",LC50 (Lepomis macrochirus) [µg/mL],NOEC (Daphnia magna) [mg/L]
CCCCCCC(C)OC(=O)COc1nc(F)c(Cl)c(N)c1Cl (centres undefined) [Fluroxypyr-meptyl],> 1040,> 2000,57.8,> 2000,0.13,–,–,–,–,–,–,–,–,–,–,–
Nc1c(Cl)c(F)nc(OCC(=O)O)c1Cl [Fluroxypyr],> 757,> 2000,40.1,–,–,80,80,100,12.3,100,> 180,37.1,64.8,3.05,14.3,56

# — EPA's ToxValDB 9.5 (doi:10.2903/j.efsa.2011.2091)
